{"source": "patent US20040013710A1", "about": "“Hydrolyzable tannin extracts from plants effective at inhibiting bacterial adherence to surfaces” (priority 2003, published 2004)", "origin": "cited, not measured here", "tested_on": "type 1 E. coli", "data": [{"molecule": "O=C(CO)[C@@H](O)[C@H](O)[C@H](O)CO", "note": "[fructose]", "values": [{"measurement": "inhibition of Type I adherence", "result": "inhibited"}]}]}
